The structures appear in SMILES notation.

For the test, the target named is T1, Endothelial lipase (Homo sapiens, UniProt Q9Y5X9).
T1 sequence (Q9Y5X9 whole entry): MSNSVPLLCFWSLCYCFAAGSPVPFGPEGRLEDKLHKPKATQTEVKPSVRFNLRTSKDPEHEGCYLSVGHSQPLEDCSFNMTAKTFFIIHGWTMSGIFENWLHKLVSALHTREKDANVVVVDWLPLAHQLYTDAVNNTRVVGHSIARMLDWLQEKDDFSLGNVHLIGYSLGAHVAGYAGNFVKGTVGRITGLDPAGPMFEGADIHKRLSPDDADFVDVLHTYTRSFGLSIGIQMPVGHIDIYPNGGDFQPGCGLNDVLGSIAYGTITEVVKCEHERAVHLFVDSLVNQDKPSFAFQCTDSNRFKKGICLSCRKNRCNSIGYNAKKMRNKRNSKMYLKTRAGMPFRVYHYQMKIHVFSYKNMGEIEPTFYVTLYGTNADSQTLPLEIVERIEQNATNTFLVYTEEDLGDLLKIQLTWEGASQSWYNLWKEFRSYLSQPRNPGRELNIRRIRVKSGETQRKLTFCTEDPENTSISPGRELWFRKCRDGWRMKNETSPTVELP
The test is described as follows: Enzymatic Assay: Endothelial lipase activity was measured using a fluorescent substrate, A10070, (Invitrogen, CA) doped into an artificial vesicle containing DMPG (Avanti Polar Lipids) as the excipient. Vesicles were prepared by combining 285 uL of 1 mMDMPG in a 1:1 mixture of MeOH and CHCl3 with 15 uL of 1 mM A10070 in a 1:1 mixture of MeOH and CHCl3. The mixture was dried under nitrogen and resuspended in 150 uL of 50 mM HEPES pH 8.0 buffer containing 100 mM NaCl and 0.2 mM EDTA. The sample was allowed to sit at rt for 15 min and then was sonicated 3x4 mins on ice with a Branson Sonicator using duty cycle 1. This preparation provides vesicles with a mole fraction of 0.05 for the FRET substrate.The enzymatic assay was measured using white, opaque 96-well half area plates. Each well contained 60 uL of assay buffer (50 mM HEPES pH 8.0, 50 mM NaCl and 1 mM CaCl2) and 2 ul of a DMSO solution containing compound of interest. Conditioned media obtained from HT-1080 cells, which were transformed by RAGE technology (Athersys) to overexpress endogenous EL, was added and the reaction was allowed to incubate for 20 min at 37deg; C. with gentle agitation. The reaction was started by the addition of 20 uL of a 1:4 dilution of vesicles. The final total reaction volume was 100 uL. The reaction rates were measured on a Gemini plate reader with an excitation wavelength of 488 nm and a emission of 530 nm. Readings were taken every 20 seconds for 10 min with agitation between each reading. The slope of the linear portion of the readout was used to calculate the rate of the reaction. It counts as cell-based.
In the case of `CN1CC(C(=O)NCc2ccc(Oc3ccc(Cl)c(Cl)c3)cc2)=C(O)C1=O`, the IC50 is 27 nM.
Take `CC(=O)Nc1ccc(-c2cccc([C@@H](C)NC(=O)C3=C(O)C(=O)N(c4ccc(F)cc4F)C3)c2)cc1`: the IC50 is 27.1 nM.
On to `CN1CC(C(=O)NCc2ccc(Oc3ccccc3)cc2)=C(O)C1=O`, for which the IC50 was 43 nM.
On to `CN1CC(C(=O)NCCCOc2cccc(Oc3ccccc3)c2)=C(O)C1=O`, for which the IC50 is 22.1 nM.

The values above are taken from ChEMBL document CHEMBL3887008, “Pyrrolinone carboxamide compounds useful as endothelial lipase inhibitors” (2016).
